Earlier results on one compound are cited in patent US20220242810A1, “CRYSTALLINE CANNABIGEROL” (Purisys LLC, priority 2019, published 2022).

For data set [1] the following is noted: in vivo.
The test system of data set [2] is uptake of γ-aminobutyric acid (GABA).
For data set [3], the target named is CB2 receptor (Homo sapiens, UniProt P34972). Particulars: unknown whether agonist or antagonist.
For data set [4] the following is noted: rats.
Data set [5] relates to colon cancer cells. The following applies: one study.
The test system of data set [6] is α2-adrenergic receptor.
Data set [7] has as its target T1, 5-HT1A receptor (Homo sapiens, UniProt P08908).
T1 sequence (P08908 1-422): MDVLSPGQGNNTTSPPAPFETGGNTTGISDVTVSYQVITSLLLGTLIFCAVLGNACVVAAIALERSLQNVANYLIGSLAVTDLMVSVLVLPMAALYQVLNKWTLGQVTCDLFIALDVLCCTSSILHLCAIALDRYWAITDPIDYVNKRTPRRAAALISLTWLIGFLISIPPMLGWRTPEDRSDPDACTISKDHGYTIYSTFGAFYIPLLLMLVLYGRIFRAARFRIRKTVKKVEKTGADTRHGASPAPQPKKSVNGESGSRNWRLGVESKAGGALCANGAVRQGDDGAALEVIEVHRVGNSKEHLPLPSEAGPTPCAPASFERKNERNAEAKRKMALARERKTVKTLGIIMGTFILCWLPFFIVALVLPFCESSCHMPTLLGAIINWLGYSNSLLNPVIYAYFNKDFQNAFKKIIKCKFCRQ

The target of data set [8] is CBI receptor (Homo sapiens, UniProt P21554).
Sequence of CBI receptor (P21554 whole entry): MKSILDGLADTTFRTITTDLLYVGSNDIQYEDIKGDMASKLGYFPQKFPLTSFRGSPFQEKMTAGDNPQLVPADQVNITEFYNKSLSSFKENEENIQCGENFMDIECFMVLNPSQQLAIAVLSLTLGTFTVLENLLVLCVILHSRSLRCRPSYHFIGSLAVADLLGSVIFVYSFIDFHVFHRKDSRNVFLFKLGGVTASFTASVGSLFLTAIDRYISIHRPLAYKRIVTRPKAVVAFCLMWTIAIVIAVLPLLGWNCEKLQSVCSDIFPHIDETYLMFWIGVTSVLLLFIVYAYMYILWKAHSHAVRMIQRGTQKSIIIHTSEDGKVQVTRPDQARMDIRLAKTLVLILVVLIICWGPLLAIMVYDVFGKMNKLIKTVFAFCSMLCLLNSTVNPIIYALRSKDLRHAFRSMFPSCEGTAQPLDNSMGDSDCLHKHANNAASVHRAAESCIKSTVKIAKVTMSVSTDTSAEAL

Sequence of CB2 receptor (P34972 whole entry): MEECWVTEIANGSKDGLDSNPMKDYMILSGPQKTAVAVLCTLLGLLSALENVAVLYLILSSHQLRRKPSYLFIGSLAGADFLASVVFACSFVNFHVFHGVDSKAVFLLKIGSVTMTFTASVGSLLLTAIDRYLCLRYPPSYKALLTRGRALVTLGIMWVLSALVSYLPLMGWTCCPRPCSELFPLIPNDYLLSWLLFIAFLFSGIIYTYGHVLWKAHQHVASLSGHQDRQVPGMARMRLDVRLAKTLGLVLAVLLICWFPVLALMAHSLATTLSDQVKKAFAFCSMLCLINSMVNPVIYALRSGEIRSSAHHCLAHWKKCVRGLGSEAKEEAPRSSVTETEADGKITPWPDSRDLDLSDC

As for `CCCCCc1cc(O)c(C/C=C(\C)CCC=C(C)C)c(O)c1` [CBG, 2-[(2E)-3,7-dimethylocta-2,6-dienyl]-5-pentyl-benzene-1,3-diol], the “effect on intraocular pressure” value in data set [1] was “relieve intraocular pressure”. Moreover, in data set [2], the “uptake of γ-aminobutyric acid (GABA) in the brain” value is “inhibits the uptake”. Also, in data set [3], the “binding with the CB2 receptor” value is given as “known to bind”. In data set [4], the “anti-nausea and anti-emetic effect” value was “anti-nausea and anti-emetic effect”. The “growth of colon cancer cells” value in data set [5] was “inhibits the growth”. Moreover, in data set [6], the “affinity as α2-adrenergic receptor agonist” value is recorded as “high affinity”. Also, the “affinity as 5-HT1A receptor antagonist” value in data set [7] is “moderate affinity”. In data set [8], the “affinity as CBI receptor antagonist” value is given as “low affinity”.
